Assay results as given in ChEMBL document CHEMBL4152312, “Identification of fused pyrimidines as interleukin 17 secretion inhibitors” (Eur J Med Chem, 2018).

Assays:
PBMC [1] = assay: Cytotoxicity against human PBMC assessed as induction of cell death by cell Titer-Glo assay; format: cell-based
PBMC [2] = assay: Inhibition of IL-17 secretion in anti-human CD3 antibody/anti-human CD28 antibody/IL23-stimulated human PBMC after 48 hrs by ELISA; format: functional, cell-based
PBMC [3] = assay: Inhibition of IL-5 secretion in anti-human CD3 antibody/anti-human CD28 antibody/IL23-stimulated human PBMC after 48 hrs by ELISA; format: functional, cell-based

Row | Structure (SMILES) | IC50 (PBMC [1]) | IC50 (PBMC [2]) | IC50 (PBMC [3])
1 | C[C@@H](Nc1ncnc2[nH]cc(-c3ccc(F)c(CNCCN(C)C)c3)c12)c1ccccc1 | > 10 µM | 5 µM | 
2 | C[C@@H](Nc1ncnc2[nH]cc(-c3ccc(F)c(CO)c3)c12)c1ccccc1 | > 10 µM | 3.1 µM | 
3 | Oc1ccccc1-c1cc2c(OC(c3ccccc3)C(F)(F)F)ncnc2s1 (centres undefined) |  | > 10 µM | 
4 | OCc1ccc(-c2cc3c(Nc4cccc(OCc5ccccc5)c4)ncnc3[nH]2)cc1 | > 10 µM | 2.2 µM | 
5 | CN(C)CCn1cc(-c2ccc(F)c(CO)c2)c2c(N[C@H](CO)c3ccccc3)ncnc21 |  | > 10 µM | 
6 | Oc1cccc(-c2c[nH]c3ncnc(Nc4ccc(OCc5cccc(F)c5)c(Cl)c4)c23)c1 |  | > 10 µM | 
7 | COc1ccccc1-c1cc2c(N[C@H](C)c3ccccn3)ncnc2s1 |  | > 10 µM | 
8 | COc1cc(F)ccc1-c1cc2c(N[C@H](CO)c3ccccc3)ncnc2[nH]1 | > 10 µM | 4.1 to 4.3 µM | 1.1 µM
9 | COc1cc(CO)ccc1-c1cc2c(Nc3ccc(OCc4cccc(F)c4)c(Cl)c3)ncnc2s1 | 28 µM | 9 µM | > 30 µM
10 | COc1ccc(-c2cc3c(N[C@@H](C)CO)ncnc3s2)cc1 |  | > 10 µM | 
11 | COc1cccc(-c2cc3c(N[C@H](C)c4ccccc4)ncnc3s2)c1OC |  | > 10 µM | 
12 | Oc1ccc(-c2cc3c(OC(c4ccccc4)C(F)(F)F)ncnc3s2)cc1 (centres undefined) |  | > 10 µM | 
13 | COc1cc(CO)ccc1-c1cc2c(N[C@H](CO)c3ccccc3)ncnc2s1 | > 30 µM | 4.6 µM | 14 µM
14 | C[C@@H](Nc1ncnc2sc(-c3ccccc3)cc12)c1ccccc1 |  | > 10 µM | 
15 | COc1ccc(-c2cc3c(N[C@H](CO)c4ccccc4)ncnc3s2)cc1 |  | > 10 µM | 
16 | NC(=O)CC(Nc1ncnc2sc(-c3ccc(CO)cc3)cc12)c1ccccc1 (centres undefined) | > 10 µM | 3.3 µM | 
17 | Fc1ccc(-c2cc3c(Nc4cccc(OCc5ccccc5)c4)ncnc3[nH]2)cc1 |  | > 10 µM | 
18 | Oc1cccc(-c2cc3c(OC(c4ccccc4)C(F)(F)F)ncnc3s2)c1 (centres undefined) |  | > 10 µM | 
19 | OCc1ccc(-c2cc3c(Nc4cccc(OCc5ccccc5)c4)ncnc3s2)cc1 |  | > 10 µM | 
20 | CC(Nc1ncnc2[nH]c(-c3ccc(CO)cc3)cc12)C12CC3CC(CC(C3)C1)C2 (centres undefined) | > 10 µM | 5 µM | 

Row | Structure (SMILES) | IC50 (PBMC [1]) | IC50 (PBMC [2]) | IC50 (PBMC [3])
21 | Fc1ccc(Nc2ncnc3sc(-c4ccc(Br)cc4)cc23)cc1Cl |  | > 10 µM | 
22 | OCc1ccc(-c2cc3c(Nc4ccc(OCc5cccc(F)c5)c(Cl)c4)ncnc3[nH]2)cc1 |  | > 10 µM | 
23 | Fc1ccc(-c2cc3c(Nc4cccc(OCc5ccccc5)c4)ncnc3s2)cc1 |  | > 10 µM | 
24 | COc1cc(CO)ccc1-c1cc2c(N[C@H](CO)c3ccc(F)cc3)ncnc2[nH]1 | > 10 µM | 3.1 µM | 
25 | CC(C)c1cc(C(C)C)c(-c2cc3c(N[C@H](C)c4ccccc4)ncnc3s2)c(C(C)C)c1 |  | > 10 µM | 
26 | COc1cccc(OC)c1-c1cc2c(N[C@H](C)c3ccccc3)ncnc2[nH]1 | > 10 µM | 4.2 µM | 2.5 µM
27 | Cn1cc(-c2cccc(O)c2)c2c(N[C@H](CO)c3ccccc3)ncnc21 | > 10 µM | 2.8 µM | 
28 | CS(=O)(=O)CCNCc1ccc(-c2ccc3ncnc(Nc4ccc(OCc5cccc(F)c5)c(Cl)c4)c3c2)o1 [LAPATINIB] | 28 µM |  | 
29 | COc1cc(CO)ccc1-c1cc2c(N[C@H](CO)c3ccccc3)ncnc2[nH]1 | > 30 µM | 3.1 to 3.2 µM | 2.3 to 3.5 µM
30 | Cc1cc(C)c(-c2cc3c(N[C@H](C)c4ccccc4)ncnc3s2)c(C)c1 |  | > 10 µM | 
31 | COc1cccc(OC)c1-c1cc2c(N[C@H](CO)c3ccccc3)ncnc2s1 | > 30 µM | 7 µM | 
32 | COc1ccc(-c2cc3c(N[C@H](C)C4CCCCC4)ncnc3s2)cc1 |  | > 10 µM | 
33 | C=Cc1ccc(-c2cc3c(N[C@H](C)c4ccccc4)ncnc3s2)cc1 |  | > 10 µM | 
34 | CN(C)CCn1cc(-c2ccc(O)cc2)c2c(N[C@H](CO)c3ccccc3)ncnc21 |  | > 10 µM | 
35 | COc1ccc(-c2cc3c(NC(CC(N)=O)c4ccccc4)ncnc3s2)cc1 (centres undefined) | > 30 µM | 4 µM | 7.6 to 8 µM
36 | CC(CO)Nc1ncnc2c1c(-c1cccc(O)c1)cn2CCN(C)C (single isomer, unassigned) |  | > 10 µM | 
37 | COc1ccc(-c2cc3c(N[C@H](CCO)c4ccccc4)ncnc3s2)cc1 |  | > 10 µM | 
38 | CN(C)CCn1cc(-c2cccc(O)c2)c2c(N[C@H](CO)c3ccccc3)ncnc21 |  | > 10 µM | 
39 | CN(C)CCn1cc(-c2ccc(CO)cc2)c2c(N[C@H](CO)c3ccccc3)ncnc21 |  | > 10 µM | 
